Literature values, collected in patent publication US20040115749A1, “Cardiovascular disease and thrombotic risk diagnostic tests” (priority 2001, published 2004).

System: ELISA kit for 13(S)-HODE (anti-13(S)-HODE specific antibody)
Details: commercial ELISA kit for 13(S)-HODE

For `CCCCC[C@@H](O)/C=C/C=C\CCCCCCCC(=O)O` [13(R)-HODE], the cross-reactivity is given as 10%.
